Laboratory results as given in ChEMBL document CHEMBL4382233, “Discovery of novel arylethenesulfonyl fluorides as potential candidates against methicillin-resistant of Staphylococcus aureus (MRSA) for overcoming multidrug resistance of bacterial infections” (2019).
In brackets after ≈: the same amount, converted by molar mass. Activity calls are given as the source filed them. No cut-off for these calls is given here.

Assays:
Staphylococcus aureus [1] = assay: Antibacterial activity against methicillin-resistant Staphylococcus aureus after overnight incubation by micro broth dilution analysis; assay type: functional
[2] = system: Staphylococcus epidermidis; assay: Antibacterial activity against methicillin-resistant Staphylococcus epidermidis after overnight incubation by micro broth dilution analysis; assay type: functional
[3] = system: Staphylococcus haemolyticus; assay: Antibacterial activity against methicillin-resistant Staphylococcus haemolyticus after overnight incubation by micro broth dilution analysis; assay type: functional
Staphylococcus aureus [4] = assay: Antibacterial activity against methicillin-resistant Staphylococcus aureus assessed as zone of inhibition at 50 ug/mL after 24 hrs by agar disc diffusion method; assay type: functional; settings: read-out: IZ
Staphylococcus aureus [5] = assay: Antibacterial activity against methicillin-resistant Staphylococcus aureus assessed as zone of inhibition at 200 ng/mL after 24 hrs by agar disc diffusion method; assay type: functional; settings: read-out: IZ
Staphylococcus aureus [6] = assay: Antibacterial activity against methicillin-resistant Staphylococcus aureus assessed as zone of inhibition at 400 ng/mL after 24 hrs by agar disc diffusion method; assay type: functional; settings: read-out: IZ
Staphylococcus aureus [7] = assay: Antibacterial activity against methicillin-resistant Staphylococcus aureus assessed as zone of inhibition at 800 ng/mL after 24 hrs by agar disc diffusion method; assay type: functional; settings: read-out: IZ
[8] = system: Staphylococcus epidermidis; assay: Antibacterial activity against methicillin-resistant Staphylococcus epidermidis assessed as zone of inhibition at 20 ug/mL after 24 hrs by agar disc diffusion method; assay type: functional; settings: read-out: IZ
[9] = system: Staphylococcus haemolyticus; assay: Antibacterial activity against methicillin-resistant Staphylococcus haemolyticus assessed as zone of inhibition at 50 ug/mL after 24 hrs by agar disc diffusion method; assay type: functional; settings: read-out: IZ
Staphylococcus aureus [10] = assay: Induction of cellular content release in methicillin-resistant Staphylococcus aureus assessed as DNA content by measuring optical density at 260 nm at MIC after 240 mins by UV-visible spectrophotometric analysis; assay type: functional
Staphylococcus aureus [11] = assay: Antibiofilm activity against methicillin-resistant Staphylococcus aureus at MIC after 24 hrs by crystal violet staining-based UV-visible spectrophotometric analysis; assay type: functional, organism-based
Staphylococcus aureus [12] = assay: Antibiofilm activity against methicillin-resistant Staphylococcus aureus planktonic biofilm assessed as optical density at 492 nm at MIC after 24 hrs by crystal violet staining-based UV-visible spectrophotometric analysis; assay type: functional
[13] = system: Staphylococcus haemolyticus; assay: Antibacterial activity against methicillin-resistant Staphylococcus haemolyticus assessed as zone of inhibition at 200 ng/mL after 24 hrs by agar disc diffusion method; assay type: functional; settings: read-out: IZ
[14] = system: Staphylococcus haemolyticus; assay: Antibacterial activity against methicillin-resistant Staphylococcus haemolyticus assessed as zone of inhibition at 400 ng/mL after 24 hrs by agar disc diffusion method; assay type: functional; settings: read-out: IZ
[15] = system: Staphylococcus haemolyticus; assay: Antibacterial activity against methicillin-resistant Staphylococcus haemolyticus assessed as zone of inhibition at 800 ng/mL after 24 hrs by agar disc diffusion method; assay type: functional; settings: read-out: IZ
Staphylococcus aureus [16] = assay: Antibiofilm activity against methicillin-resistant Staphylococcus aureus at 2 times MIC after 24 hrs by crystal violet staining-based UV-visible spectrophotometric analysis; assay type: functional, organism-based
Staphylococcus aureus [17] = assay: Induction of pore formation in methicillin-resistant Staphylococcus aureus cell membrane assessed as increase in ferricyanide mediated cellular leakage after 2 hrs by DCPIP dye-based cyclic voltammetric analysis; assay type: functional, organism-based
Staphylococcus aureus [18] = assay: Induction of pore formation in methicillin-resistant Staphylococcus aureus cell membrane assessed as increase in ferricyanide mediated potassium efflux after 2 hrs by DCPIP dye-based cyclic voltammetric analysis; assay type: functional, organism-based
Staphylococcus aureus [19] = assay: Induction of pore formation in methicillin-resistant Staphylococcus aureus cell membrane assessed as increase in ferricyanide mediated DNA damage after 2 hrs by DCPIP dye-based cyclic voltammetric analysis; assay type: functional, organism-based
[20] = system: Staphylococcus epidermidis; assay: Antibacterial activity against methicillin-resistant Staphylococcus epidermidis assessed as zone of inhibition at 200 ng/mL after 24 hrs by agar disc diffusion method; assay type: functional; settings: read-out: IZ
[21] = system: Staphylococcus epidermidis; assay: Antibacterial activity against methicillin-resistant Staphylococcus epidermidis assessed as zone of inhibition at 400 ng/mL after 24 hrs by agar disc diffusion method; assay type: functional; settings: read-out: IZ
[22] = system: Staphylococcus epidermidis; assay: Antibacterial activity against methicillin-resistant Staphylococcus epidermidis assessed as zone of inhibition at 800 ng/mL after 24 hrs by agar disc diffusion method; assay type: functional; settings: read-out: IZ

Compound | MIC99 (Staphylococcus aureus [1]) | MIC99 [2] | MIC99 [3] | zone of inhibition at 50 µg/mL (Staphylococcus aureus [4]) | zone of inhibition at 0.2 µg/mL (Staphylococcus aureus [5]) | zone of inhibition at 0.4 µg/mL (Staphylococcus aureus [6]) | zone of inhibition at 0.8 µg/mL (Staphylococcus aureus [7]) | zone of inhibition at 20 µg/mL [8] | zone of inhibition at 50 µg/mL [9] | OD (Staphylococcus aureus [10]) | OD (Staphylococcus aureus [12]) | zone of inhibition at 0.2 µg/mL [13] | zone of inhibition at 0.4 µg/mL [14] | zone of inhibition at 0.8 µg/mL [15] | Activity (Staphylococcus aureus [16]) | zone of inhibition at 0.2 µg/mL [20] | zone of inhibition at 0.4 µg/mL [21] | zone of inhibition at 0.8 µg/mL [22] | also measured
Cc1ccc(/C=C/S(=O)(=O)F)cc1 | 0.836 µg/mL (≈ 4.18 µM) | 44.2 µg/mL (≈ 221 µM) | 40.1 µg/mL (≈ 201 µM) | 10.3 mm | 4.1 mm | 5.2 mm | 7.1 mm | 6.4 mm | 6.3 mm | 1.48 | 0.815 | – | – | – | – | – | – | – | Activity (Staphylococcus aureus [11]): Active
CC(C)S(=O)(=O)c1ccc(/C=C/S(=O)(=O)F)cc1 | 0.808 µg/mL (≈ 2.76 µM) | 41.4 µg/mL (≈ 142 µM) | 41.2 µg/mL (≈ 141 µM) | 9 mm | 6.2 mm | 8.1 mm | 10.1 mm | 6.2 mm | 5.2 mm | 1.78 | 0.6 | – | – | – | – | – | – | – | Activity (Staphylococcus aureus [11]): Active
CC(=O)c1cccc(/C=C/S(=O)(=O)F)c1 | 0.851 µg/mL (≈ 3.73 µM) | 55.6 µg/mL (≈ 244 µM) | 0.843 µg/mL (≈ 3.69 µM) | 10.1 mm | 5.2 mm | 7.5 mm | 8.1 mm | 3.3 mm | 8.2 mm | 1.28 | – | 4.2 mm | 5.2 mm | 6.2 mm | Active | – | – | – | Activity (Staphylococcus aureus [17]): Active; Activity (Staphylococcus aureus [18]): Active; Activity (Staphylococcus aureus [19]): Active
O=S(=O)(F)/C=C/c1cccc(O)c1 | 0.841 µg/mL (≈ 4.16 µM) | 0.83 µg/mL (≈ 4.1 µM) | 58.2 µg/mL (≈ 288 µM) | 12.2 mm | 3.5 mm | 4.1 mm | 6.3 mm | 7.4 mm | 4.5 mm | 1.52 | – | – | – | – | Active | 4.2 mm | 5.3 mm | 7.4 mm | –
O=S(=O)(F)/C=C/c1ccc(C(F)(F)F)nc1 | 0.811 µg/mL (≈ 3.18 µM) | 0.838 µg/mL (≈ 3.28 µM) | 40 µg/mL (≈ 157 µM) | 12.2 mm | 5.1 mm | 7.2 mm | 11.2 mm | 8.5 mm | 5.5 mm | 1.67 | 0.815 | – | – | – | – | 4.2 mm | 5.1 mm | 7.2 mm | Activity (Staphylococcus aureus [11]): Active
O=[N+]([O-])c1ccc(/C=C/S(=O)(=O)F)cc1 | 0.823 µg/mL (≈ 3.56 µM) | 58.2 µg/mL (≈ 252 µM) | 0.833 µg/mL (≈ 3.6 µM) | 8.12 mm | 5.1 mm | 7.2 mm | 10.1 mm | 6.2 mm | 7.3 mm | 1.35 | – | 4.1 mm | 5.2 mm | 7.4 mm | Active | – | – | – | –
O=S(=O)(F)/C=C/c1cc(Cl)cc(Cl)c1 | 0.812 µg/mL (≈ 3.18 µM) | 48.1 µg/mL (≈ 188 µM) | 16.3 µg/mL (≈ 63.9 µM) | 20.1 mm | 6.2 mm | 10.2 mm | 14.2 mm | 4.4 mm | 13.1 mm | 1.34 | 0.825 | 0 mm | 3.3 mm | 5.1 mm | – | – | – | – | Activity (Staphylococcus aureus [11]): Active; Activity (Staphylococcus aureus [17]): Active; Activity (Staphylococcus aureus [18]): Active; Activity (Staphylococcus aureus [19]): Active
Cc1cc(C)cc(/C=C/S(=O)(=O)F)c1 | 40.2 µg/mL (≈ 188 µM) | 0.818 µg/mL (≈ 3.82 µM) | 60.2 µg/mL (≈ 281 µM) | 7.2 mm | – | – | – | 9.2 mm | 3.5 mm | 1.37 | – | – | – | – | Active | 3.3 mm | 5.2 mm | 9.8 mm | –
GENTAMICIN | – | – | – | – | – | – | – | – | – | – | 0.808 | – | – | – | Active | – | – | – | –
COc1ccccc1/C=C/S(=O)(=O)F | 69.1 µg/mL (≈ 319 µM) | 0.829 µg/mL (≈ 3.83 µM) | 0.837 µg/mL (≈ 3.87 µM) | 5.2 mm | – | – | – | 7.2 mm | 12.2 mm | – | – | 3.2 mm | 5.2 mm | 7.1 mm | Active | 5.1 mm | 7.2 mm | 8.4 mm | –
COc1cccc(/C=C/S(=O)(=O)F)c1 | 0.842 µg/mL (≈ 3.89 µM) | 55.2 µg/mL (≈ 255 µM) | 63.2 µg/mL (≈ 292 µM) | 9.1 mm | 4.1 mm | 5.2 mm | 9.1 mm | 4.3 mm | 6.3 mm | 1.56 | – | – | – | – | Active | – | – | – | –
O=S(=O)(F)/C=C/c1ccccc1 | 18.2 µg/mL (≈ 97.5 µM) | 15.2 µg/mL (≈ 81.4 µM) | 20.1 µg/mL (≈ 108 µM) | 8.2 mm | 3.5 mm | 4.2 mm | 4.5 mm | 11.2 mm | 7.2 mm | – | – | 0 mm | 1.2 mm | 3.2 mm | – | 0.1 mm | 4.2 mm | 5.5 mm | –
O=C(O)c1cn(C2CC2)c2cc(N3CCNCC3)c(F)cc2c1=O [CIPROFLOXACIN] | – | – | – | – | – | – | – | – | – | – | 0.915 | – | – | – | Active | – | – | – | –
Cc1cc(/C=C/S(=O)(=O)F)ccc1Br | 0.81 µg/mL (≈ 2.9 µM) | 50 µg/mL (≈ 179 µM) | 57.2 µg/mL (≈ 205 µM) | 12 mm | 6.2 mm | 8.2 mm | 10.4 mm | 6.3 mm | 5.3 mm | 1.61 | – | – | – | – | Active | – | – | – | –
O=S(=O)(F)/C=C/c1cccc2ccccc12 | 0.82 µg/mL (≈ 3.47 µM) | 47 µg/mL (≈ 199 µM) | 51 µg/mL (≈ 216 µM) | 9.2 mm | 4.2 mm | 6.2 mm | 9.2 mm | 5.5 mm | 4.1 mm | 1.48 | – | – | – | – | Active | – | – | – | –
O=[N+]([O-])c1cccc(/C=C/S(=O)(=O)F)c1 | 0.843 µg/mL (≈ 3.65 µM) | 0.831 µg/mL (≈ 3.59 µM) | 61.6 µg/mL (≈ 266 µM) | 9.1 mm | 5.2 mm | 6.1 mm | 9.7 mm | 7.4 mm | 6.4 mm | 1.45 | – | – | – | – | Active | 5.2 mm | 6.2 mm | 7.2 mm | –
CS(=O)(=O)c1ccc(/C=C/S(=O)(=O)F)cc1 | 15.1 µg/mL (≈ 56.9 µM) | 50 µg/mL (≈ 189 µM) | 43.2 µg/mL (≈ 163 µM) | 10.3 mm | 4.1 mm | 5.2 mm | 7.1 mm | 4.2 mm | – | 1.45 | 0.718 | – | – | – | – | – | – | – | Activity (Staphylococcus aureus [11]): Active
O=S(=O)(F)/C=C/c1ccccc1Br | 0.839 µg/mL (≈ 3.16 µM) | 0.809 µg/mL (≈ 3.05 µM) | 25.3 µg/mL (≈ 95.5 µM) | 20.1 mm | 3.5 mm | 4.4 mm | 7.2 mm | 14.1 mm | 11.2 mm | 1.58 | 0.725 | 1.1 mm | 2.2 mm | 3.3 mm | – | 10.1 mm | 11.5 mm | 14.2 mm | –
CCOC(=O)/C=C/C=C/S(=O)(=O)F | 40.3 µg/mL (≈ 193 µM) | 47 µg/mL (≈ 226 µM) | 56.1 µg/mL (≈ 269 µM) | 4.1 mm | – | – | – | 8.2 mm | 7.5 mm | – | – | 0 mm | 3.2 mm | 5.1 mm | – | 3.3 mm | 4.1 mm | 3.1 mm | –
